What is called IC50 is the concentration at which inhibition is half-maximal.

The results in this text go back to US11839613B2, “Pyrimidine derivatives as PGE2 receptor modulators” (IDORSIA PHARMACEUTICALS LTD, priority 2017, dated 2023).

One test addresses PTGER2 (EP2) (Homo sapiens (Human), UniProt P43116). As to the kind of experiment: hEP2 b-arrestin assay (PathHunter HEK 293 PTGER2 b-arrestin cells). The test is classed as cell-based. The conditions noted are these: antagonistic activity, beta-arrestin assay; read-out: hEP2 b-arr IC50. The protocol:
Plate is pre-incubated 15 minutes at 37° C. Then five microliters of PGE2 (final conc. 5 μM) are transferred into the assay plate. Plate is incubated 120 minutes at 37° C.
(each concentration is measured in duplicate)

A further test has as its target PTGER4 (EP4) (Homo sapiens (Human), UniProt P35408). Description: cell-based.

PTGER4 (EP4), sequence (P35408 whole entry): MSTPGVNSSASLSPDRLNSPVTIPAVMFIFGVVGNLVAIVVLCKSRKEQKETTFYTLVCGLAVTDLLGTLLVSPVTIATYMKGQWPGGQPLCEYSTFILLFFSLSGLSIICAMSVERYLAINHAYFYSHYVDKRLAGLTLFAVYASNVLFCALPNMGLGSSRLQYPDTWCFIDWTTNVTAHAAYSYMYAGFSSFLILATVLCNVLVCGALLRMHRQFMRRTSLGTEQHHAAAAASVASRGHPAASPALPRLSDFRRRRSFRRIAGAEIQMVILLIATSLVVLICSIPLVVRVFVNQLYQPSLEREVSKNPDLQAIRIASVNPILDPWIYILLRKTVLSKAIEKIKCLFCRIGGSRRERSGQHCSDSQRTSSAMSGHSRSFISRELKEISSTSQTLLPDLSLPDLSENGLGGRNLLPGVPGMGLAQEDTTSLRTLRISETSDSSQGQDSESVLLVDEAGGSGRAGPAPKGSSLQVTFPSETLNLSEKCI
PTGER2 (EP2), sequence (P43116 whole entry): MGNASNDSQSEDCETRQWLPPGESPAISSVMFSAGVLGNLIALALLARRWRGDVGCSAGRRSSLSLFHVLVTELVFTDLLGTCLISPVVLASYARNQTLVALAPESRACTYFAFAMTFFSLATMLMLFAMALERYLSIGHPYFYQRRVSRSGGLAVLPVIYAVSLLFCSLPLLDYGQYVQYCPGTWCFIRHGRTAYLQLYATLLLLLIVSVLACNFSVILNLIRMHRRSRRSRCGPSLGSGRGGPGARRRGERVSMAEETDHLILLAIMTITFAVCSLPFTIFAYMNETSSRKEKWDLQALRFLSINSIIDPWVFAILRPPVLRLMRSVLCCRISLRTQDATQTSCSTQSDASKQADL
From the text for PTGER4 (EP4): The system is based on the Enzyme Fragment Complementation Technology. Two complementing fragments of the b-galactosidase enzyme are expressed within stably transfected cells. The larger portion of b-gal, termed EA for Enzyme Acceptor, is fused to the C-terminus of b-arrestin 2. The smaller fragment, termed ProLink™ tag, is fused to PTGER2 (EP2) or PTRGER4 (EP4) at the C-terminus. Upon activation, b-arrestin is recruited which forces the interaction of ProLink and EA, allowing complementation of the two fragments of b-gal and the formation of a functional enzyme which is capable of hydrolysing the substrate and generating a chemiluminescent signal.
Plate is incubated at 37° C., 5% CO2 for 24 hours.
Stock solutions of test compounds are made at a concentration of 10 mM in DMSO, and serially diluted in DMSO to concentrations required for inhibition dose response curves (tested concentration range 10 μM-2 nM or 1 μM-0.2 nM).
Five microliters of diluted compounds are transferred into the assay plate. Plate is pre-incubated 15 minutes at 37° C. Then five microliters of PGE2 (final conc. 20 nM) are transferred into the assay plate. Plate is incubated 120 minutes at 37° C.
Twelve I of reagent are transferred to the assay plate and incubate for 1 hour at RT in the dark. Luminescence counts are read on a BMG Fluostar Optima reader according to manufacturer's instructions.
For each compound concentration calculate of the percentage of activity compared to DMSO control value as average ±STDEV. (each concentration is measured in duplicate)

Turning to `CCCc1cc(-c2cc(NCCc3cc(F)c4sccc4c3)ncn2)ccc1C1(C(=O)O)CC1` [Example 557, 1-(4-{6-[2-(7-Fluoro-benzo[b]thiophen-5-yl)-ethylamino]-pyrimidin-4-yl}-2-propyl-phenyl)-cyclopropanecarboxylic acid], the values for the IC50 on PTGER2 (EP2) and at PTGER4 (EP4) were 994 nM and 117 nM, respectively.

Take `CCOc1cc(-c2cc(NCCc3cc(C)c4sccc4c3)ncn2)sc1C(=O)O` [Example 391, 3-Ethoxy-5-{6-[2-(7-methyl-benzo[b]thiophen-5-yl)-ethylamino]-pyrimidin-4-yl}-thiophene-2-carboxylic acid]: the IC50 on PTGER2 (EP2) amounted to 131 nM; on PTGER4 (EP4), 19 nM.

Take `COc1cc2ccccc2c(C)c1CCNc1cc(-c2ccc(CC(=O)O)c(OC(F)(F)F)c2)ncn1` [Example 500, (4-{6-[2-(3-Methoxy-1-methyl-naphthalen-2-yl)-ethylamino]-pyrimidin-4-yl}-2-trifluoromethoxy-phenyl)-acetic acid]: the IC50 at PTGER2 (EP2) is 88 nM; at PTGER4 (EP4), 99 nM.

As for `COc1cc2c(c(C)c1CCNc1cc(-c3ccc(CC(=O)O)c(OC(F)F)c3)ncn1)OCCO2` [Example 441, (2-Difluoromethoxy-4-{6-[2-(7-methoxy-5-methyl-2,3-dihydro-benzo[1,4]dioxin-6-yl)-ethylamino]-pyrimidin-4-yl}-phenyl)-acetic acid], the results for the IC50 at PTGER2 (EP2) and on PTGER4 (EP4) were 10 nM and 53 nM, respectively.

Turning to `COc1cc2c(c(C)c1CCNc1cc(-c3ccc(C(=O)O)c(OC(C)C)c3)ncn1)OCCO2` [Example 432, 2-Isopropoxy-4-{6-[2-(7-methoxy-5-methyl-2,3-dihydro-benzo[1,4]dioxin-6-yl)-ethylamino]-pyrimidin-4-yl}-benzoic acid], the figures for the IC50 on PTGER2 (EP2) and at PTGER4 (EP4) were 20 nM and 87 nM, respectively.

Take `CCOc1c(CC(=O)O)ccc(-c2cc(NCCc3cc(F)c4sccc4c3)ncn2)c1F` [Example 564, (2-Ethoxy-3-fluoro-4-{6-[2-(7-fluoro-benzo[b]thiophen-5-yl)-ethylamino]-pyrimidin-4-yl}-phenyl)-acetic acid]: the results for the IC50 on PTGER2 (EP2) and against PTGER4 (EP4) were 817 nM and 212 nM, respectively.

Consider `Cc1c(CCNc2cc(-c3ccc(CC(=O)O)c(OC(F)F)c3)ncn2)ccc2c1OCCO2` [Example 511, (2-Difluoromethoxy-4-{6-[2-(5-methyl-2,3-dihydro-benzo[1,4]dioxin-6-yl)-ethylamino]-pyrimidin-4-yl}-phenyl)-acetic acid], for which the IC50 was found to be 304 nM on PTGER2 (EP2) and 423 nM against PTGER4 (EP4).

In the case of `CCOc1cc(-c2cc(NCCc3cc4ccsc4c(F)c3OC)ncn2)sc1C(=O)O` [Example 484, 3-Ethoxy-5-{6-[2-(7-fluoro-6-methoxy-benzo[b]thiophen-5-yl)-ethylamino]-pyrimidin-4-yl}-thiophene-2-carboxylic acid], the IC50 at PTGER2 (EP2) and on PTGER4 (EP4) was 3 nM each time.

Consider `O=C(O)c1ccc(-c2cc(NCCc3cc(F)c4sccc4c3)ncn2)cc1OC1CCC1` [Example 534, 2-Cyclobutoxy-4-{6-[2-(7-fluoro-benzo[b]thiophen-5-yl)-ethylamino]-pyrimidin-4-yl}-benzoic acid], for which the half-maximal inhibitory concentration (IC50) at PTGER2 (EP2) is 332 nM; on PTGER4 (EP4) it was 70 nM.

Take `CCOc1cc(-c2cc(NCCc3ccc4ccsc4c3C)ncn2)sc1C(=O)O` [Example 376, 3-Ethoxy-5-{6-[2-(7-methyl-benzo[b]thiophen-6-yl)-ethylamino]-pyrimidin-4-yl}-thiophene-2-carboxylic acid]: the IC50 at PTGER2 (EP2) amounted to 50 nM; on PTGER4 (EP4) it was 13 nM.

`O=c1[nH]c(-c2ccc(-c3cc(NCCc4cc(F)c5sccc5c4)ncn3)cc2)no1` [Example 529, 3-(4-(6-((2-(7-fluorobenzo[b]thiophen-5-yl)ethyl)amino)pyrimidin-4-yl)phenyl)-[1,2,4]oxadiazol-5(4H)-one]: the IC50 was 699 nM on PTGER2 (EP2) and 55 nM on PTGER4 (EP4).

For the compound `CSc1cc(-c2cc(NCCc3cc(F)c4sccc4c3)ncn2)ccc1C(=O)O` [Example 364, 4-{6-[2-(7-Fluoro-benzo[b]thiophen-5-yl)-ethylamino]-pyrimidin-4-yl}-2-methylsulfanyl-benzoic acid], the half-maximal inhibitory concentration (IC50) was determined as 151 nM on PTGER2 (EP2) and 52 nM on PTGER4 (EP4).

Turning to `CCOc1cc(-c2cc(NCCc3cc(F)c4sccc4c3)ncn2)ccc1-c1cc(O)no1` [Example 550, 5-(2-Ethoxy-4-{6-[2-(7-fluoro-benzo[b]thiophen-5-yl)-ethylamino]-pyrimidin-4-yl}-phenyl)-isoxazol-3-ol], the IC50 at PTGER2 (EP2) stood at 371 nM; against PTGER4 (EP4) it was 63 nM.

In the case of `CCOc1cc(-c2cc(NCCc3ccc4sccc4c3)ncn2)cc(F)c1CC(=O)O` [Example 370, {4-[6-(2-Benzo[b]thiophen-5-yl-ethylamino)-pyrimidin-4-yl]-2-ethoxy-6-fluoro-phenyl}-acetic acid], the IC50 on PTGER2 (EP2) was 438 nM; at PTGER4 (EP4), 105 nM.

Turning to `CCOc1cc(-c2cc(NCCc3ccc4c(c3C)OCCO4)ncn2)ccc1CC(=O)O` [Example 506, (2-Ethoxy-4-{6-[2-(5-methyl-2,3-dihydro-benzo[1,4]dioxin-6-yl)-ethylamino]-pyrimidin-4-yl}-phenyl)-acetic acid], the IC50 at PTGER2 (EP2) amounted to 172 nM; at PTGER4 (EP4) it was 332 nM.

As for `CCOc1cc2c(cc1CCNc1cc(-c3ccc(CC(=O)O)c(CC)c3)ncn1)OCCO2` [Example 512, (4-{6-[2-(7-Ethoxy-2,3-dihydro-benzo[1,4]dioxin-6-yl)-ethylamino]-pyrimidin-4-yl}-2-ethyl-phenyl)-acetic acid], the IC50 at PTGER2 (EP2) is 67 nM; on PTGER4 (EP4), 220 nM.

`CCCc1cc(-c2cc(NCCc3c(OC)cc4c(c3C)OCCO4)ncn2)ccc1CC(=O)O` [Example 397, (4-{6-[2-(7-Methoxy-5-methyl-2,3-dihydro-benzo[1,4]dioxin-6-yl)-ethylamino]-pyrimidin-4-yl}-2-propyl-phenyl)-acetic acid]: the IC50 at PTGER2 (EP2) is 7 nM; on PTGER4 (EP4), 35 nM.

`CCOc1cc(-c2cc(NCCc3c(OC)cc4c(c3F)OCCO4)ncn2)ccc1C(=O)O` [Example 435, 2-Ethoxy-4-{6-[2-(5-fluoro-7-methoxy-2,3-dihydro-benzo[1,4]dioxin-6-yl)-ethylamino]-pyrimidin-4-yl}-benzoic acid]: the IC50 on PTGER2 (EP2) turned out to be 46 nM; against PTGER4 (EP4), 110 nM.

On to `COc1cc2c(c(C)c1CCNc1cc(-c3ccc(CC(=O)O)c(OC(F)(F)F)c3)ncn1)OCCO2` [Example 428, (4-{6-[2-(7-Methoxy-5-methyl-2,3-dihydro-benzo[1,4]dioxin-6-yl)-ethylamino]-pyrimidin-4-yl}-2-trifluoromethoxy-phenyl)-acetic acid], for which the IC50 on PTGER2 (EP2) came out at 7 nM; at PTGER4 (EP4), 41 nM.

`CCCc1cc(-c2cc(NCCc3c(OC)cc4ccccc4c3C)ncn2)ccc1C(=O)O` [Example 380, 4-{6-[2-(3-Methoxy-1-methyl-naphthalen-2-yl)-ethylamino]-pyrimidin-4-yl}-2-propyl-benzoic acid]: the IC50 at PTGER2 (EP2) stood at 16 nM; against PTGER4 (EP4), 17 nM.

As for `COc1cc2c(cc1CCNc1cc(-c3ccc(CC(=O)O)c(C(F)(F)F)c3)ncn1)OCCO2` [Example 525, (4-{6-[2-(7-Methoxy-2,3-dihydro-benzo[1,4]dioxin-6-yl)-ethylamino]-pyrimidin-4-yl}-2-trifluoromethyl-phenyl)-acetic acid], the values for the IC50 on PTGER2 (EP2) and at PTGER4 (EP4) were 160 nM and 349 nM, respectively.

Take `CCOc1cc(-c2cc(NCCc3c(OC)cc4c(c3C)OCCO4)ncn2)ccc1CC(=O)O` [Example 399, (2-Ethoxy-4-{6-[2-(7-methoxy-5-methyl-2,3-dihydro-benzo[1,4]dioxin-6-yl)-ethylamino]-pyrimidin-4-yl}-phenyl)-acetic acid]: the IC50 was determined as 10 nM at PTGER2 (EP2) and 30 nM against PTGER4 (EP4).

Regarding `CCc1cc(-c2cc(NCCc3ccc4c(c3C)OCCO4)ncn2)ccc1C(=O)O` [Example 515, 2-Ethyl-4-{6-[2-(5-methyl-2,3-dihydro-benzo[1,4]dioxin-6-yl)-ethylamino]-pyrimidin-4-yl}-benzoic acid], the results for the IC50 on PTGER2 (EP2) and on PTGER4 (EP4) were 67 nM and 893 nM, respectively.

Consider `COc1cc(-c2cc(NCCc3ccc4sccc4c3F)ncn2)ccc1OCCC(=O)O` [Example 437, 3-(4-{6-[2-(4-Fluoro-benzo[b]thiophen-5-yl)-ethylamino]-pyrimidin-4-yl}-2-methoxy-phenoxy)-propionic acid], for which the IC50 on PTGER2 (EP2) turned out to be 104 nM; on PTGER4 (EP4), 41 nM.

In the case of `Cc1cc(-c2cc(NCCc3cc(F)c4sccc4c3)ncn2)ccc1C(=O)O` [Example 555, 4-{6-[2-(7-Fluoro-benzo[b]thiophen-5-yl)-ethylamino]-pyrimidin-4-yl}-2-methyl-benzoic acid], the IC50 turned out to be 887 nM on PTGER2 (EP2) and 835 nM at PTGER4 (EP4).

As to `CCOc1cc(-c2cc(NCCc3ccc4sccc4c3C)ncn2)cc(F)c1CC(=O)O` [Example 372, (2-Ethoxy-6-fluoro-4-{6-[2-(4-methyl-benzo[b]thiophen-5-yl)-ethylamino]-pyrimidin-4-yl}-phenyl)-acetic acid], the IC50 at PTGER2 (EP2) worked out at 75 nM; on PTGER4 (EP4), 195 nM.

Regarding `CCOc1cc(-c2cc(NCCc3cc4ccsc4cc3C)ncn2)cc(F)c1CC(=O)O` [Example 469, (2-Ethoxy-6-fluoro-4-{6-[2-(6-methyl-benzo[b]thiophen-5-yl)-ethylamino]-pyrimidin-4-yl}-phenyl)-acetic acid], the IC50 at PTGER2 (EP2) is 502 nM; at PTGER4 (EP4) it was 480 nM.

For `CCCc1cc(-c2cc(NCCc3cc(F)c4scc(Cl)c4c3)ncn2)ccc1CC(=O)O` [Example 501, (4-{6-[2-(3-Chloro-7-fluoro-benzo[b]thiophen-5-yl)-ethylamino]-pyrimidin-4-yl}-2-propyl-phenyl)-acetic acid], the half-inhibitory concentration (IC50) at PTGER2 (EP2) was determined as 196 nM; at PTGER4 (EP4) it was 808 nM.

Regarding `CCc1cc(-c2cc(NCCc3cc4c(cc3OC)OCCO4)ncn2)ccc1CC(=O)O` [Example 524, (2-Ethyl-4-{6-[2-(7-methoxy-2,3-dihydro-benzo[1,4]dioxin-6-yl)-ethylamino]-pyrimidin-4-yl}-phenyl)-acetic acid], the figures for the IC50 at PTGER2 (EP2) and at PTGER4 (EP4) were 231 nM and 257 nM, respectively.
